The values below come from ChEMBL document CHEMBL3507680, “University of Dundee, Gates Library screen for HepG2 cell viability”.

The nature of this series: Human HepG2 cell viability assay in 384 well format. The following applies: HepG2 cells, read-out: Inhibition. Also noted: dose 125 nL, time 70.5 hour; cytotoxicity at 70.5 h: concentration not given beside the values. The class given is toxicity, cell-based.

`Cn1cc(C2=CCN(CCCC(=O)Nc3ccc(C#N)cc3)CC2)cn1`: the cytotoxicity at 70.5 h was 18.4%.

Turning to `Cc1nc2c(C(=O)O)cccc2n1-c1ccc(C(=O)N2CCCC2)o1`, the cytotoxicity at 70.5 h worked out at 7.08%.

Consider `CCn1nc(C)c(CNC(=O)C2COc3ccccc3C2)c1C` (stereo not drawn), for which the cytotoxicity at 70.5 h was -8.01%.

For the molecule `NC(=O)[C@H]1CCCN1C(=O)c1csc(-c2ccc(C(F)(F)F)cc2)n1`, the cytotoxicity at 70.5 h was -6.09%.

For `Cc1ccc(-c2ccnc(N(C)CC3CCCN3C)n2)c(C)n1` (stereo not drawn), the cytotoxicity at 70.5 h came to 16.3%.

For `Cc1cc(F)ccc1C(=O)N1CCN(C)C2(CCC(=O)N(C)CC2)C1` (stereo not drawn), the cytotoxicity at 70.5 h was -9.21%.

`CCc1ccc(CN(Cc2ccccc2)CC(C)CO)nc1` (stereo not drawn): the cytotoxicity at 70.5 h is -6.55%.

Consider `c1ccc(C2CCCCN2Cc2nc(-c3cnccn3)no2)nc1` (stereo not drawn), for which the cytotoxicity at 70.5 h was -1.69%.

Regarding `O=C(NCCC1=CCCCC1)c1cc(-c2ccc(O)cc2)n[nH]1`, the cytotoxicity at 70.5 h was -1.77%.

Consider `CCN1CCN(C(=O)c2ccc3c(c2)OCC(=O)N3)[C@H]2CS(=O)(=O)C[C@H]21`, for which the cytotoxicity at 70.5 h is -12.3%.

In the case of `Cc1cc(C)c(C(=O)N2CCCC(O)(CN3CCCC3)C2)cc1C` (stereo not drawn), the cytotoxicity at 70.5 h is -4.19%.

For the molecule `CC(=O)NCCc1ncnn1-c1ccc(F)c(Cl)c1`, the cytotoxicity at 70.5 h is 7.55%.

Turning to `Cc1nn(C)c(C)c1CN1CCCC(c2ccc(C(=O)O)cc2)C1` (stereo not drawn), the cytotoxicity at 70.5 h is -3.35%.

`Cc1nc[nH]c1C(=O)N1CCCC2(C1)C(=O)N(C)c1ccccc12` (stereo not drawn): the cytotoxicity at 70.5 h is -3.87%.

As for `COc1cccc(CN2CCN(c3cccc(C(C)C)n3)CC2)c1F`, the cytotoxicity at 70.5 h was -0.272%.

As for `CC(C)[C@H]1CN(Cc2nccn2C)C[C@@H]1NC(=O)COCC(N)=O`, the cytotoxicity at 70.5 h is -9.51%.

For the molecule `NCC1Cc2cc(-c3nccc(N4CCC(O)CC4)n3)cc(Cl)c2O1` (stereo not drawn), the cytotoxicity at 70.5 h is 5.41%.

Take `CCN(Cc1nc(COC)no1)C(=O)CCn1c(C)cc2ccccc21`: the cytotoxicity at 70.5 h was -0.00353%.

For `CCC[C@@H]1CN(Cc2ccc(N(C)C)nc2)C[C@H]1N(C)C`, the cytotoxicity at 70.5 h is -9.01%.

For `Cc1cc(CC(C)Nc2ncnc3cccc(F)c23)[nH]n1` (stereo not drawn), the cytotoxicity at 70.5 h stood at 2.32%.

Take `O=C(NCCc1noc(C2CCCC2)n1)c1cn2ccsc2n1`: the cytotoxicity at 70.5 h was -6.72%.

Take `Nc1nc2c(c(NCc3ccncc3)n1)CCCC2`: the cytotoxicity at 70.5 h was determined as 0.39%.

Take `COc1ccc2c(c1)OCC(CNC(=O)c1ccc3[nH]nnc3c1)C2` (stereo not drawn): the cytotoxicity at 70.5 h is -9.44%.

`Cc1n[nH]c(C)c1CC(=O)N1CCC2(CC1)CN(C)CCN2C`: the cytotoxicity at 70.5 h was determined as 23.4%.

With `CCN1CC(C(=O)NCCCc2nc(C)c(C)s2)CC1=O` (stereo not drawn), the cytotoxicity at 70.5 h is -9.75%.

On to `Cc1nc2c(c(N3CC=CC3)n1)CCN(c1ncccc1C(N)=O)CC2`, for which the cytotoxicity at 70.5 h is -2.97%.

Regarding `COCc1cc(N2CCN(C3CCCCC3)CC2)n2nccc2n1`, the cytotoxicity at 70.5 h was -4.81%.

As to `CCC(CO)N(C/C(C)=C/c1ccco1)Cc1ccccn1` (stereo not drawn), the cytotoxicity at 70.5 h is -6%.

For `Cc1ccc(-c2cnnc(N3CCCC3c3nonc3C)n2)o1` (stereo not drawn), the cytotoxicity at 70.5 h was -3.66%.

Turning to `OC1(CNCCN2CCCc3ccccc32)CCNC1` (stereo not drawn), the cytotoxicity at 70.5 h was -11.6%.

Consider `Cc1n[nH]c(C)c1CN(C)C(C(=O)O)c1c(F)cccc1OC(C)C` (stereo not drawn), for which the cytotoxicity at 70.5 h is -4.07%.

`COCc1ncn(Cc2nc(-c3ccc(OC)cc3F)oc2C)n1`: the cytotoxicity at 70.5 h was found to be 51.2%.

Regarding `CC(C)n1cc(C(=O)NCCCc2csc(N)n2)cn1`, the cytotoxicity at 70.5 h is -9.21%.

Take `CCc1cc(NC2CCS(=O)(=O)C2)nc(N2CCCCC2)n1` (stereo not drawn): the cytotoxicity at 70.5 h is -3.25%.

As for `CN1CCc2[nH]cnc2C12CCN(C(=O)CCc1cccs1)CC2`, the cytotoxicity at 70.5 h is 16.8%.

With `CCc1nccn1CCNC1CCN(c2nc3ccc(Cl)cc3s2)CC1`, the cytotoxicity at 70.5 h was found to be 40.5%.

In the case of `Cc1c(CN2CCc3[nH]cnc3C2C(=O)O)[nH]c2ccc(F)cc12` (stereo not drawn), the cytotoxicity at 70.5 h was -20.3%.

On to `CSc1ccc(-c2nc(CN3CCC(C(N)=O)CC3)c(C)o2)cc1`, for which the cytotoxicity at 70.5 h was -6.77%.

As for `CCCNC(=O)N1CCc2ccc(S(=O)(=O)N3CCN(C)CC3)cc2C1`, the cytotoxicity at 70.5 h is -16.2%.

Take `Cc1cc(C)c2ncn(CC(C)(C)CO)c(=O)c2c1`: the cytotoxicity at 70.5 h was -6.8%.

With `COc1ccc(Cl)cc1CN(C)C(=O)CN1C(=O)OC[C@@H]1C(C)C`, the cytotoxicity at 70.5 h was -6.97%.

Consider `Cc1ccnn1CCC(=O)N1CCN(C2CCc3ccccc3C2)CC1` (stereo not drawn), for which the cytotoxicity at 70.5 h is -12.6%.

Consider `CCC(Nc1nc(C2CCCC2)nc2c1cnn2C)c1ccncc1` (stereo not drawn), for which the cytotoxicity at 70.5 h stood at 8.01%.

On to `CCCc1ccc(C(C)Nc2ncnc3c2CCNC3)cc1` (stereo not drawn), for which the cytotoxicity at 70.5 h is -2.09%.

In the case of `CS(=O)(=O)CC1CCCN(C(=O)Cn2cccc(C(F)(F)F)c2=O)C1` (stereo not drawn), the cytotoxicity at 70.5 h came out at 6.87%.

Turning to `CCCc1nc(CN(CC)Cc2ccc(O)c(C(=O)O)c2)no1`, the cytotoxicity at 70.5 h was -8.69%.

With `Cc1cnn(CCCn2ncc(N3CCC(CN)C3)cc2=O)c1` (stereo not drawn), the cytotoxicity at 70.5 h came out at 9.78%.

For the molecule `O=C(CCN1CCCCO1)NCc1cn2c(n1)SCC2`, the cytotoxicity at 70.5 h was -0.977%.

On to `CN(C)S(=O)(=O)NC1CCCc2c1cnn2-c1ccc(C(C)(C)C)cc1` (stereo not drawn), for which the cytotoxicity at 70.5 h was -2.4%.

Regarding `Cc1cn(CC(=O)Nc2cc(C(C)(C)C)nn2C)cn1`, the cytotoxicity at 70.5 h was -5.53%.

As to `CCc1[nH]c2c(CNc3nccc(N)n3)cc(C)cc2c1C`, the cytotoxicity at 70.5 h is 23.9%.

As to `Cc1cc(N2Cc3cnc(CC(C)C)nc3C2)nc(N)n1`, the cytotoxicity at 70.5 h stood at 0.669%.

With `CCN(C)C[C@@H]1CN(C(=O)c2cc(C(F)(F)F)n[nH]2)C[C@@H]1CO`, the cytotoxicity at 70.5 h is -10%.

Take `O=C(CCCNCc1ccccc1)N1CCCn2cncc2C1`: the cytotoxicity at 70.5 h was -4.58%.

Turning to `CCCc1nc(N2CCCN(c3ccncc3)CC2)c2cnn(C)c2n1`, the cytotoxicity at 70.5 h is -11.6%.

With `CSc1nc(N)cc(N2C[C@@H]3CC[C@H](C2)N(Cc2cscn2)C3=O)n1`, the cytotoxicity at 70.5 h stood at 7.64%.

Regarding `CCc1nc(CCn2cc(-c3nccn3C)nn2)no1`, the cytotoxicity at 70.5 h was -9.68%.

With `Cc1n[nH]c(CN2CCN(C(=O)C3CCC3)[C@@H]3CS(=O)(=O)C[C@@H]32)n1`, the cytotoxicity at 70.5 h was found to be 0.743%.

Consider `COc1ccc(-c2noc(-c3ccc(N4CCC[C@H]4CO)nc3)n2)cc1`, for which the cytotoxicity at 70.5 h was found to be 10.2%.

Consider `Cc1ccnn1CC(=O)N(C)Cc1ccc(-n2cccn2)cc1`, for which the cytotoxicity at 70.5 h is -7.33%.

`N[C@H]1CN(C(=O)c2ccc3[nH]c(=O)c(=O)[nH]c3c2)C[C@@H]1c1ccccc1`: the cytotoxicity at 70.5 h was -16.1%.

Consider `Cc1[nH]nc(CCC(=O)N2CCc3c(nc[nH]c3=O)C2)c1C`, for which the cytotoxicity at 70.5 h is -15.9%.

As for `OCCC[C@@H]1CN(c2ncc(Cl)cc2Cl)CC[C@@H]1N1CCOCC1`, the cytotoxicity at 70.5 h came to 3.21%.

As for `CN(C)CCN1CC(C(=O)N2CCC(c3cccc(O)c3)CC2)CC1=O` (stereo not drawn), the cytotoxicity at 70.5 h is 2.7%.

For `CC(C)(C)N1CC(C(=O)NCc2cn3cccnc3n2)CC1=O` (stereo not drawn), the cytotoxicity at 70.5 h was -5.98%.

Consider `Cc1cc(NC2CCC(=O)N(C)C2)n2nccc2n1` (stereo not drawn), for which the cytotoxicity at 70.5 h was -9.21%.

Turning to `CN1CCNC(=O)C12CCN(C(=O)c1ccc3[nH]c(=O)[nH]c3c1)CC2`, the cytotoxicity at 70.5 h is -7.66%.

Take `c1ccc(CCN2CCN(C3CCOC4(CCOCC4)C3)CC2)nc1` (stereo not drawn): the cytotoxicity at 70.5 h is -9.08%.

In the case of `CCN(CC)CCC(=O)N1CCc2c(nc(N(C)C)nc2N(C)C)C1`, the cytotoxicity at 70.5 h stood at 29.3%.

As to `CCCc1nc(C)cc(NC(C)Cc2cnccn2)n1` (stereo not drawn), the cytotoxicity at 70.5 h was -10.8%.

Consider `CCOCCNCc1cc(O)c2cc(C)ccc2n1`, for which the cytotoxicity at 70.5 h was -5.02%.

On to `Cn1ncc(N2CCOC(CCNC(=O)CO)C2)cc1=O` (stereo not drawn), for which the cytotoxicity at 70.5 h was 13.3%.

On to `COCCN1CCN(Cc2cccnc2)[C@H]2CS(=O)(=O)C[C@H]21`, for which the cytotoxicity at 70.5 h worked out at 21.4%.

As to `COCCN1CCCC2(CCN(c3nc(C)nc4ccsc34)C2)C1=O` (stereo not drawn), the cytotoxicity at 70.5 h was -11.8%.

With `COc1cccn(CC(=O)N2CCCC3(CCOCC3)C2)c1=O`, the cytotoxicity at 70.5 h was -1.15%.

As for `Cc1cc(-c2nccn2CCN2CCCCC2CO)oc1C` (stereo not drawn), the cytotoxicity at 70.5 h is -5.85%.

With `O=C(c1ncc[nH]1)N1CCC(n2cc(-c3ccccn3)nn2)CC1`, the cytotoxicity at 70.5 h was found to be 0.522%.

Consider `CCN(C)C[C@@H]1CN(S(=O)(=O)c2cccc(C#N)c2)C[C@@H]1CO`, for which the cytotoxicity at 70.5 h was -5.18%.

Regarding `O=C(NCc1ccc2c(c1)CCCO2)C1CNCCO1` (stereo not drawn), the cytotoxicity at 70.5 h is 48.5%.

For the molecule `CN1C[C@@H](N)C[C@H]1C(=O)N1CCC(Cc2ccc(F)cc2)CC1`, the cytotoxicity at 70.5 h is 0.737%.

On to `COCc1noc(CN2CCCCC2CCc2cccs2)n1` (stereo not drawn), for which the cytotoxicity at 70.5 h is -14.8%.

For the molecule `CCCOC1CCCN(c2nc(CC)nc3c2cnn3C)C1` (stereo not drawn), the cytotoxicity at 70.5 h was -10.7%.

Take `N[C@@H]1CC[C@H](C(=O)NCc2ccc3nonc3c2)C1`: the cytotoxicity at 70.5 h is -13.2%.

Regarding `CC1CCCN1Cc1cccc(C(=O)Nc2ccc3[nH]c(=O)oc3c2)c1` (stereo not drawn), the cytotoxicity at 70.5 h worked out at 30.6%.

As to `c1cncc(C(Cn2cnnc2)N2CCOCC2)c1` (stereo not drawn), the cytotoxicity at 70.5 h came to 2.14%.

`Cc1ccc([C@@H]2CN(S(=O)(=O)N3CCC(C)CC3)C[C@H]2N(C)C)cc1`: the cytotoxicity at 70.5 h is -12.1%.

With `COc1nc2c(cc1C(=O)NC(C)Cc1cc(C)n[nH]1)CCC2` (stereo not drawn), the cytotoxicity at 70.5 h is -12%.

In the case of `CN(CCN1CCCCCC1)c1nccc(N2CCC(O)C2)n1` (stereo not drawn), the cytotoxicity at 70.5 h is -6.64%.

With `COCc1noc(CN2CC(=O)N(C)c3ccccc3C2=O)n1`, the cytotoxicity at 70.5 h was 0.208%.

Take `Cc1ccccc1OCC1CCCN(C(=O)CNC(=O)N(C)C)C1` (stereo not drawn): the cytotoxicity at 70.5 h is 16.8%.

On to `N#Cc1c2n(c3c(=O)[nH]cnc13)CCCCC2`, for which the cytotoxicity at 70.5 h was 2.85%.

For the molecule `CCc1nc(N)nc(NCCC(=O)NC2CCCCC2)c1C`, the cytotoxicity at 70.5 h is -3.68%.

On to `Cc1cc(C(=O)N2CCC3(CC2)CN(CCN(C)C)C(=O)O3)nc(C)n1`, for which the cytotoxicity at 70.5 h is -6.56%.

Consider `COCc1ccc(C(=O)N2CC[C@@](O)(COC)C(C)(C)C2)o1`, for which the cytotoxicity at 70.5 h is -6.95%.

Regarding `CNCc1n[nH]c(=O)n1-c1cccc(Cl)c1Cl`, the cytotoxicity at 70.5 h is -8.26%.

Regarding `O=c1n(CCn2cccc2)nc(C2CCNCC2)n1Cc1ccccc1`, the cytotoxicity at 70.5 h is -3.92%.

Turning to `Cc1ccccc1C(CNC(=O)CSc1nnc(N)s1)N(C)C` (stereo not drawn), the cytotoxicity at 70.5 h is -6.4%.

With `CCC(C(=O)NC1(CN2CCOCC2)CCCC1)n1cccn1` (stereo not drawn), the cytotoxicity at 70.5 h was -2.56%.
